# Values of other authors in paper PMC9430692, “BRET-Based Self-Cleaving Biosensors for SARS-CoV-2 3CLpro Inhibitor Discovery” (Microbiology Spectrum, 2022).
# pEC50: −log10 of the molar value.
# Test system: SARS-CoV-2
# Details: Vero E6 cells, MOI 0.01; ref [8]; read-out: Reported EC50 against SARS-CoV-2
smiles,measurement,value
CC(C)(C)NC(=O)N[C@H](C(=O)N1C[C@H]2[C@@H]([C@H]1C(=O)NC(CC1CCC1)C(=O)C(N)=O)C2(C)C)C(C)(C)C (stereo partly shown) [Boceprevir],pEC50,4.81
